Source: patent US12054466B2, “Compounds for the treatment of clostridium difficile infection” (University of Notre Dame du Lac, priority 2016, dated 2024)
Values after ≈ are worked out from the molar mass of the structure shown. “Also recorded” adds a separate entry of the source. Read-outs that look alike come from different tables or passages of the source.

How the values were obtained:
C. difficile [1] = assay: MIC against C. difficile (strain not named; 14 strains overall); type: cell-based, Clostridium difficile
C. difficile ATCC43598 = assay: MIC, broth microdilution; type: cell-based; settings: Clostridioides difficile
C. difficile ATCC43255 = assay: MIC, broth microdilution; type: cell-based; settings: Clostridioides difficile
C. difficile BAA-1804 = assay: MIC, broth microdilution; type: cell-based; settings: Clostridioides difficile
C. difficile BAA-1803 = assay: MIC, broth microdilution; type: cell-based; settings: Clostridioides difficile
C. difficile BAA-1801 = assay: MIC, broth microdilution; type: cell-based; settings: Clostridioides difficile
C. difficile BAA-1812 = assay: MIC, broth microdilution; type: cell-based; settings: Clostridioides difficile
C. difficile BAA-1814 = assay: MIC, broth microdilution; type: cell-based; settings: Clostridioides difficile
C. difficile NR49294 = assay: MIC, broth microdilution; type: cell-based; settings: Clostridioides difficile
C. difficile NR49318 = assay: MIC, broth microdilution; type: cell-based; settings: Clostridioides difficile
C. difficile NR49292 = assay: MIC, broth microdilution; type: cell-based; settings: Clostridioides difficile
[2] = system: Bacteroides fragilis HM-709; assay: MIC against common gut bacteria; type: cell-based; settings: Bacteroides fragilis, HM709
Bacteroides fragilis = assay: MIC against common gut bacteria; type: cell-based
Bacteroides ovatus = assay: MIC against common gut bacteria; type: cell-based
Bacteroides vulgatus = assay: MIC against common gut bacteria; type: cell-based; settings: Phocaeicola vulgatus
Bacteroides eggerthii = assay: MIC against common gut bacteria; type: cell-based
Bacteroides caccae = assay: MIC against common gut bacteria; type: cell-based
[3] = system: Bifidobacterium longum HM-846; assay: MIC against common gut bacteria; type: cell-based; settings: Bifidobacterium longum, HM846
[4] = system: Corynebacterium sp. HM-784; assay: MIC against common gut bacteria; type: cell-based; settings: Corynebacterium, SP.HM784
Description: Minimally-inhibitory concentrations. MICs for C. difficile strains and the common gut bacteria were determined using broth microdilution techniques as reported earlier using brucella broth supplemented with hemin and vitamin K or supplemented BHIS broth (Babakhani et al., J Antimicrob Chemother 2013, 68(3), 515). Lactobacillus MRS broth was used for lactobacillus strains. […] All incubations unless specified otherwise were carried out at 24 or 48 h at 37° C. in an anaerobic chamber (Whitley DG250 workstation, Microbiology International, Frederick, MD). Corynebacterium and lactobacillus species were incubated aerobically.

[5] = system: Fusobacterium nucleatum HM-992; assay: MIC against common gut bacteria; type: cell-based; settings: Fusobacterium nucleatum, HM992
[6] = system: Lactobacillus reuteri HM-102; assay: MIC against common gut bacteria; type: cell-based; settings: Limosilactobacillus reuteri, HM102
[7] = system: Lactobacillus gasseri HM-644; assay: MIC against common gut bacteria; type: cell-based; settings: Lactobacillus gasseri, HM644
Veillonella sp. HM-49 = assay: MIC against common gut bacteria; type: cell-based; settings: Veillonella, SP.HM49
[8] = system: C. difficile strain ATCC 43255; assay: Mouse model of recurrent CDI, second study: fecal cell, spore and toxin evaluation; type: in vivo, mice
Description: C. difficile Mouse Model. […] A negative vehicle control will be included. […] This study was conducted in duplicates.
A second study was conducted with oxadiazole 2 given po at 20 or 40 mg/kg for 5 days and vancomycin administered at 50 mg/kg po for 5 days. Fecal samples were collected on days 3, 7, and 10 for C. difficile spore and toxin evaluation.

C. difficile infection = settings: patients treated for CDI; cited from earlier work
C. difficile [9] = settings: cited from earlier work
[10] = system: C. difficile strain ATCC 43255; assay: Mouse model of recurrent CDI, survival; settings: po once a day for 5 days; oxadiazole 2 20 mg/kg/day, vancomycin 50 mg/kg/day

## CN[C@H](CC(C)C)C(=O)N[C@H]1C(=O)N[C@@H](CC(N)=O)C(=O)N[C@H]2C(=O)N[C@H]3C(=O)N[C@H](C(=O)N[C@H](C(=O)O)c4cc(O)cc(O)c4-c4cc3ccc4O)[C@H](O)c3ccc(c(Cl)c3)Oc3cc2cc(c3O[C@@H]2O[C@H](CO)[C@@H](O)[C@H](O)[C@H]2O[C@H]2C[C@](C)(N)[C@H](O)[C@H](C)O2)Oc2ccc(cc2Cl)[C@H]1O [vancomycin]
C. difficile [1]
  MIC range in 14 C. difficile strains: 0.25 to 1 µg/mL
C. difficile ATCC43598; ATCC43598, 24 h, read-out: MIC at 24 h
  MIC: 1 µg/mL (≈ 0.69 µM)
C. difficile ATCC43598; ATCC43598, 48 h, read-out: MIC at 48 h
  MIC: 1 µg/mL (≈ 0.69 µM)
C. difficile ATCC43255; ATCC43255, 24 h, read-out: MIC at 24 h
  MIC: 0.5 µg/mL (≈ 0.345 µM)
C. difficile ATCC43255; ATCC43255, 48 h, read-out: MIC at 48 h
  MIC: 0.5 µg/mL (≈ 0.345 µM)
C. difficile BAA-1804; BAA1804, 24 h, read-out: MIC at 24 h
  MIC: 1 µg/mL (≈ 0.69 µM)
C. difficile BAA-1804; BAA1804, 48 h, read-out: MIC at 48 h
  MIC: 1 µg/mL (≈ 0.69 µM)
C. difficile BAA-1803; BAA1803, 24 h, read-out: MIC at 24 h
  MIC: 1 µg/mL (≈ 0.69 µM)
C. difficile BAA-1803; BAA1803, 48 h, read-out: MIC at 48 h
  MIC: 2 µg/mL (≈ 1.38 µM)
C. difficile BAA-1801; BAA1801, 24 h, read-out: MIC at 24 h
  MIC: 0.25 µg/mL (≈ 0.173 µM)
C. difficile BAA-1801; BAA1801, 48 h, read-out: MIC at 48 h
  MIC: 0.25 µg/mL (≈ 0.173 µM)
C. difficile BAA-1812; BAA1812, 24 h, read-out: MIC at 24 h
  MIC: 0.25 µg/mL (≈ 0.173 µM)
C. difficile BAA-1812; BAA1812, 48 h, read-out: MIC at 48 h
  MIC: 0.5 µg/mL (≈ 0.345 µM)
C. difficile BAA-1814; BAA1814, 24 h, read-out: MIC at 24 h
  MIC: 0.5 µg/mL (≈ 0.345 µM)
C. difficile BAA-1814; BAA1814, 48 h, read-out: MIC at 48 h
  MIC: 0.5 µg/mL (≈ 0.345 µM)
C. difficile NR49294; NR49294, 24 h, read-out: MIC at 24 h
  MIC: 0.25 µg/mL (≈ 0.173 µM)
C. difficile NR49294; NR49294, 48 h, read-out: MIC at 48 h
  MIC: 0.25 µg/mL (≈ 0.173 µM)
C. difficile NR49318; NR49318, 24 h, read-out: MIC at 24 h
  MIC: 0.25 µg/mL (≈ 0.173 µM)
C. difficile NR49318; NR49318, 48 h, read-out: MIC at 48 h
  MIC: 0.25 µg/mL (≈ 0.173 µM)
C. difficile NR49292; NR49292, 24 h, read-out: MIC at 24 h
  MIC: 0.25 µg/mL (≈ 0.173 µM)
C. difficile NR49292; NR49292, 48 h, read-out: MIC at 48 h
  MIC: 0.25 µg/mL (≈ 0.173 µM)
[2]
  MIC: 16 µg/mL (≈ 11 µM)
Bacteroides fragilis
  MIC: 16 µg/mL (≈ 11 µM)
Bacteroides ovatus
  MIC: 16 µg/mL (≈ 11 µM)
Bacteroides vulgatus
  MIC: 16 µg/mL (≈ 11 µM)
Bacteroides eggerthii
  MIC: 8 µg/mL (≈ 5.52 µM)
Bacteroides caccae
  MIC: 32 µg/mL (≈ 22.1 µM)
[3]
  MIC: 0.25 µg/mL (≈ 0.173 µM)
[4]
  MIC: 0.25 µg/mL (≈ 0.173 µM)
[5]
  MIC: 0.25 µg/mL (≈ 0.173 µM)
[6]
  MIC: > 32 µg/mL
[7]
  MIC: 1 µg/mL (≈ 0.69 µM)
Veillonella sp. HM-49
  MIC: > 32 µg/mL
[8]; 50 mg/kg vancomycin, in words
  Spores in feces: spores were observed on day 10; also recorded: no spores were observed until day 10
[8]; dose of compound 2 not stated
  Reduction in vegetative cells in feces by day 10: 2 log
[8]; vancomycin 50 mg/kg po for 5 days
  Total cell counts in feces, reduction on day 10 compared to day 3: 1.02 log
[8]; vancomycin group, day 10, in words
  Toxin in feces: toxin was observed
C. difficile infection
  Patients with recurrence of the infection: About 25%
C. difficile [9]; at 8× or 80× MIC
  Activity against C. difficile spores: not active
C. difficile [9]; at 8×MIC
  Inhibition of toxin production: Neither vancomycin nor metronidazole inhibit toxin production
[10]
  Survival after 25 days: 45%
